# Like-named read-outs stand apart in the source and are kept apart here.
# Legend:
# [1] = Caco-2 Transwell transport of PF with and without verapamil; assay type: in vitro ADME; conditions: human, Caco-2, absence of verapamil
# Procedure: (§1) The Caco−2 cells were purchased from ATCC (Manassas, VA, USA) and cultured in a DMEM high-glucose medium with 15% FBS, 1% NEAA, and 100 U/mL penicillin and streptomycin. A total of 1.25 × 10^5 cells/cm^2 were seeded into […] (PET) in 96-well Falcon insert systems for 21–28 days to obtain a confluent cell monolayer. The test compounds were diluted with the transport buffer (HBSS with BSA) obtained from a 10 mM stock solution to a concentration of 10 µM and applied to the apical or basolateral sides of the cell monolayer. The permeation of the test compounds from A to B directions or B to A directions was determined in duplicate over a 120-min incubation period at 37 °C and 5% CO2 with a relative humidity of 95%. In addition, the efflux ratio of each compound was also determined. Test and reference compounds were quantified by LC-MS/MS analysis based on the peak area ratio of analyte/IS. The apparent permeability coefficient, Papp (cm/s), was calculated using the following equation:Papp = (dCr/dt) × Vr/(A × C0) where dCr/dt is the cumulative concentration of the compound in the receiver chamber as a function of time (S); Vr is the solution volume in the receiver chamber (0.1 mL on the apical side and 0.25 mL on the basolateral side); A is the surface area for the transport, i.e., 0.0804 cm^2 for the area of the monolayer and C0 is the initial concentration in the donor chamber. The efflux ratio was calculated using the following equation:Efflux Ratio = Papp BA/Papp AB where Papp BA is the apparent permeability coefficient obtained from the BL to AP sides (cm/s), and Papp AB is the apparent permeability coefficient obtained from the AP to BL sides (cm/s).
# Caco−2 cells = assay: as above; assay type: in vitro ADME; conditions: with/without verapamil, p < 0.05
# Procedure: as §1
# [2] = Pharmacokinetic study in male SD rats (intravenous, oral, oral co-administration with verapamil); assay type: in vivo, Sprague–Dawley rats; conditions: for MRT inf: read-out: MRT0–∞; for Vd/F: read-out: Vz/F
# Procedure: The animal experiment was approved by the Experimental Animal Ethics Committee of Shanghai University of Traditional Chinese Medicine (the Ethics Number: PZSHUTCM201016015). After 7 days of freely feeding the animals to acclimation, the rats were randomly divided into five groups, including the following: PF at an intravenous dose of 2 mg/kg and intragastric administrations of 5 mg/kg, 10 mg/kg, and 20 mg/kg; PF combined with verapamil at doses of 20 mg/kg and 50 mg/kg, respectively. All groups of PF or PF combined with verapamil were dissolved in saline to be completely dissolved or suspended. Blood samples were collected into EDTA−2K anti-coagulant tubes at projected times (0.083, 0.25, 0.5, 1, 2, 4, and 6 h post-dose) and then immediately centrifuged at 5500 rpm at 4 °C for 10 min to obtain the supernatant. The plasma samples were stored at −20 °C prior to analysis.
# The plasma drug concentration of the PF was quantitated, according to the calibration curve, by the ratio of the analyte-to-IS peak areas obtained for each sample. Pharmacokinetic parameters, such as elimination half-life (T1/2), the area under the concentration–time curve from time zero to infinity (AUC0–∞), total body clearance (CL), and volume of distribution (Vz), were analyzed by the non-compartment model using WinNonlin software (Version 8.2). Subsequently, the main pharmacokinetic parameters were analyzed by an independent sample t-test. The oral absolute bioavailability was calculated as prescribed by the following equation: F (%) = (AUCp.o. × Dosei.v.)/(AUCi.v. × Dosep.o.) × 100%.
# [3] = Stability of PF in SD rat plasma under storage conditions; assay type: in vitro ADME; conditions: for Freeze-thaw Stability, Measured Conc. / Bench-top Stability, Measured Conc. / Long-term Stability, Measured Conc.: SD rat plasma; for Freeze-thaw Stability, Measured Conc.: 4 cycles at −20 °C; for Freeze-thaw Stability, Measured Conc. / Bench-top Stability, Measured Conc. / Long-term Stability, Measured Conc. / Autosampler Stability, Measured Conc.: n = 6; for Bench-top Stability, Measured Conc.: room temperature for 16 h; for Long-term Stability, Measured Conc.: −20 °C for 90 days; for Autosampler Stability, Measured Conc.: extracted SD rat plasma, 10 °C for 72 h
# Procedure: Stability in the plasma was tested by comparing the two-level QC samples (LQC and HQC) in sextuplicate injections to theoretical concentrations.
# The stability of PF in rat plasma was investigated by analyzing QC samples at […]. Long-term stability was tested at −20 °C for at least 30 days; short-term stability was tested at room temperature for at least 6 h; the post-preparative stability test was conducted at 10 °C for 72 […] The determined concentrations should be within ±15% of the nominal concentrations.
# [4] = parameters: method as in PMID 31400507; conditions: cited from earlier work; for BCS class: classic BCS, everted gut sac assay
# Caco-2 cell = conditions: Caco-2 monolayer cell; cited from earlier work
# [5] = male, Sprague-Dawley, rat, plasma, iv, 2 mg/kg, intravenous 2 mg/kg, n = 5
# [6] = male, Sprague-Dawley, rat, plasma, po, 5 mg/kg, oral mono-administration 5 mg/kg, n = 5
# [7] = male, Sprague-Dawley, rat, plasma, po, 10 mg/kg, oral mono-administration 10 mg/kg, n = 5
# [8] = male, Sprague-Dawley, rat, plasma, po, 20 mg/kg, oral 20 mg/kg co-administration with verapamil (50 mg/kg), n = 5
# [9] = male, Sprague-Dawley, rat, plasma, po, 20 mg/kg, oral mono-administration 20 mg/kg, n = 5
# [10] = male, Sprague-Dawley, rat, plasma, po, 20 mg/kg, range over oral doses 5, 10, 20 mg/kg
# [11] = male, Sprague-Dawley, rat, plasma, intravenous 2 mg/kg, n = 5
# [12] = oral 20 mg/kg with verapamil vs alone, p < 0.05
compound,measurement,setting,value
"C[C@@]12C[C@@]3(O)O[C@@H](O1)[C@]1(COC(=O)c4ccccc4)[C@H]3C[C@@]12O[C@@H]1O[C@H](CO)[C@@H](O)[C@H](O)[C@H]1O [PF, paeoniflorin]","efflux ratio at 120 min, 10 µM",[1],1.52
same,"Papp A→B at 120 min, 10 µM","[1]; 10 µM, 120 min",0.17 ×10⁻⁶ cm/s
same,"Papp B→A at 120 min, 10 µM","[1]; 10 µM, 120 min",0.26 ×10⁻⁶ cm/s
same,P-gp substrate status,Caco−2 cells,may be a substrate for the P-gp efflux transporter
same,AUC(0-inf),[2]; [5],2400 ± 201 ng·h/mL
same,AUC(0-t),[2]; [5],2400 ± 202 ng·h/mL
same,half-life,[2]; [5],54 ± 24 min
same,MRT inf,[2]; [5],0.2 h
same,bioavailability,"[2]; male, Sprague-Dawley, rat, plasma, po, 5 mg/kg, oral mono-administration 5 mg/kg vs intravenous 2 mg/kg, read-out: F",1.3%
same,AUC(0-inf),[2]; [6],74.7 ± 49.1 ng·h/mL
same,AUC(0-t),[2]; [6],64.7 ± 44 ng·h/mL
same,CL/F,[2]; [6],1640 mL/min/kg
same,Cmax,[2]; [6],42.3 ± 17.5 ng/mL
same,Tmax,[2]; [6],30 min
same,half-life,[2]; [6],48 ± 24 min
same,MRT inf,[2]; [6],1.3 ± 0.5 h
same,Vd/F,[2]; [6],85.7 ± 21.1 L/kg
same,bioavailability,"[2]; male, Sprague-Dawley, rat, plasma, po, 10 mg/kg, oral mono-administration 10 mg/kg vs intravenous 2 mg/kg, read-out: F",0.7%
same,AUC(0-inf),[2]; [7],84 ± 17 ng·h/mL
same,AUC(0-t),[2]; [7],82.3 ± 18.4 ng·h/mL
same,CL/F,[2]; [7],2050 mL/min/kg
same,Cmax,[2]; [7],63.4 ± 11.4 ng/mL
same,Tmax,[2]; [7],30 min
same,half-life,[2]; [7],30 ± 6 min
same,MRT inf,[2]; [7],1 ± 0.2 h
same,Vd/F,[2]; [7],89 ± 7.1 L/kg
same,AUC(0-inf),[2]; [8],892 ± 487 ng·h/mL
same,AUC(0-t),[2]; [8],882 ± 491 ng·h/mL
same,CL/F,[2]; [8],487 mL/min/kg
same,Cmax,[2]; [8],464 ± 237 ng/mL
same,Tmax,[2]; [8],42 ± 18 min
same,half-life,[2]; [8],42 ± 6 min
same,MRT inf,[2]; [8],1.5 ± 0.1 h
same,Vd/F,[2]; [8],31.5 ± 20.3 L/kg
same,bioavailability,"[2]; male, Sprague-Dawley, rat, plasma, po, 20 mg/kg, oral 20 mg/kg co-administration with verapamil vs intravenous 2 mg/kg, read-out: F",3.7%
same,bioavailability,"[2]; male, Sprague-Dawley, rat, plasma, po, 20 mg/kg, oral mono-administration 20 mg/kg vs intravenous 2 mg/kg, read-out: F",0.6%
same,AUC(0-inf),[2]; [9],157 ± 65.3 ng·h/mL
same,AUC(0-t),[2]; [9],149 ± 64.8 ng·h/mL
same,CL/F,[2]; [9],2420 mL/min/kg
same,Cmax,[2]; [9],100 ± 42.5 ng/mL
same,Tmax,[2]; [9],42 ± 18 min
same,half-life,[2]; [9],30 ± 6 min
same,MRT inf,[2]; [9],1.2 ± 0.1 h
same,Vd/F,[2]; [9],112 ± 45.7 L/kg
same,CL/F,[2]; [10],1640 to 2420 mL/min/kg
same,Tmax,[2]; [10],30 to 42 min
same,half-life,[2]; [10],30 to 48 min
same,bioavailability,"[2]; male, Sprague-Dawley, rat, plasma, po, 20 mg/kg, range over oral doses 5, 10, 20 mg/kg, read-out: absolute oral bioavailability",0.6 to 1.3%
same,C0,[2]; [11],11200 ng/mL
same,clearance,[2]; [11],13.3 mL/min/kg
same,Vd,"[2]; male, Sprague-Dawley, rat, plasma, intravenous 2 mg/kg, n = 5, read-out: Vz",0.2 L/kg
same,Cmax,[2]; oral 5 mg/kg,42.3 ± 17.5 ng/mL
same,Cmax,[2]; oral 10 mg/kg,63.4 ± 11.4 ng/mL
same,Cmax,[2]; oral 20 mg/kg,100 ± 42.5 ng/mL
same,"increase of Cmax, co-administration vs mono-administration","[2]; oral 20 mg/kg with verapamil vs alone, p < 0.01",4.6 times
same,"increase of AUC0–t, co-administration vs mono-administration",[2]; [12],5.9 times
same,"increase of AUC0–∞, co-administration vs mono-administration",[2]; [12],5.7 times
same,"Tmax, T1/2 and MRT0–∞, co-administration vs mono-administration","[2]; oral 20 mg/kg with verapamil vs alone, statistical analysis",no significant difference
same,stability in SD rat plasma,"[3]; 16 h bench-top, 72 h autosampler, 4 freeze-thaw cycles at −20 °C, 90 days at −20 °C",stable
same,"Freeze-thaw Stability, Measured Conc.",[3]; nominal 3.0 ng/mL,3.14 ± 0.17 ng/mL
same,"Freeze-thaw Stability, Measured Conc.",[3]; nominal 1500 ng/mL,1662 ± 44.5 ng/mL
same,"Bench-top Stability, Measured Conc.",[3]; nominal 3.0 ng/mL,3.01 ± 0.21 ng/mL
same,"Bench-top Stability, Measured Conc.",[3]; nominal 1500 ng/mL,1538 ± 52.0 ng/mL
same,"Long-term Stability, Measured Conc.",[3]; nominal 3.0 ng/mL,2.86 ± 0.20 ng/mL
same,"Long-term Stability, Measured Conc.",[3]; nominal 1500 ng/mL,1500 ± 37.4 ng/mL
same,"Autosampler Stability, Measured Conc.",[3]; nominal 3.0 ng/mL,2.91 ± 0.16 ng/mL
same,"Autosampler Stability, Measured Conc.",[3]; nominal 1500 ng/mL,1535 ± 54.7 ng/mL
same,solubility and permeability characteristics,[4],high solubility and low permeability
same,efflux rate constant,Caco-2 cell,higher than 2
COc1cc2c3c(c1OC)-c1ccccc1C[C@H]3N(C)CC2 [nuciferine],BCS class,[4],III/IV
C[C@@H]1O[C@@H](OC[C@H]2O[C@@H](Oc3c(-c4ccc(O)c(O)c4)oc4cc(O)cc(O)c4c3=O)[C@H](O)[C@@H](O)[C@@H]2O)[C@H](O)[C@H](O)[C@H]1O [rutin],BCS class,[4],III/IV
salvianolic acid B,BCS class,[4],III/IV
O=c1c(O[C@@H]2O[C@H](CO)[C@H](O)[C@H](O)[C@H]2O)c(-c2ccc(O)c(O)c2)oc2cc(O)cc(O)c12 [hyperoside],BCS class,[4],III/IV
